Assay results from US11136311B2, “Heteroaromatic derivatives as NIK inhibitors” (Janssen Pharmaceutica NV, priority 2016, dated 2021).
Where two headings read alike, the source gives them in different places.

Key:
[1] = biological target: recombinant human NF-kappaB-inducing kinase (NIK/MAP3K14) (Homo sapiens (Human), UniProt Q99558); assay: Inhibition of auto-phosphorylation of recombinant human NIK/MAP3K14 activity (AlphaScreen); format: biochemical; conditions: averaged values over all measurements on all batches
Chain of recombinant human NF-kappaB-inducing kinase (NIK/MAP3K14) (Q99558 whole entry): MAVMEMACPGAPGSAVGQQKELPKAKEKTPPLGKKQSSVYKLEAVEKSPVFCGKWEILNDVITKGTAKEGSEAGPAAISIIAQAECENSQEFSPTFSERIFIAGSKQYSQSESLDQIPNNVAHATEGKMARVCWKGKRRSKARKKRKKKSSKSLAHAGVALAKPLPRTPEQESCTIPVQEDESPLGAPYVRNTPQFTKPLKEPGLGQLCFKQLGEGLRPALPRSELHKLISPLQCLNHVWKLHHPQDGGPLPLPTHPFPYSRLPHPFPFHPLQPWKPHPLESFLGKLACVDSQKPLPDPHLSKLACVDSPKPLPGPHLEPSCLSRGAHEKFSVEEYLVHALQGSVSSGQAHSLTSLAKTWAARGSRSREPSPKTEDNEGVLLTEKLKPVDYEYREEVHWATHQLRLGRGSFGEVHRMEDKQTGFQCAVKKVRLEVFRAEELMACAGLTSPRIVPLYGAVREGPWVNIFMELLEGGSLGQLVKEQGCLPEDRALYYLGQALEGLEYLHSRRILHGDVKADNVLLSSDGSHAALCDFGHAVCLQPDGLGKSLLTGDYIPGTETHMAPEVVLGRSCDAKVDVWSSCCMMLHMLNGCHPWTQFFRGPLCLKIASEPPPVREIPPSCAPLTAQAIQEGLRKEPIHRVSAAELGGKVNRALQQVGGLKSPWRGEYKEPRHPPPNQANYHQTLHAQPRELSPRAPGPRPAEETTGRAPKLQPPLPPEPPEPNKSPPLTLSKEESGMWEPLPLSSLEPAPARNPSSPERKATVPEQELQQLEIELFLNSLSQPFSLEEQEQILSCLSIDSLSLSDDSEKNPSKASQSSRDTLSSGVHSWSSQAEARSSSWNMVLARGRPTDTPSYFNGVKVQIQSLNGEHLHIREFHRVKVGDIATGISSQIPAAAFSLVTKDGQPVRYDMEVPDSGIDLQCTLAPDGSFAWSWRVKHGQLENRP
Description: Inhibition of auto-phosphorylation of recombinant human NF-kappaB-inducing kinase (NIK/MAP3K14) activity (AlphaScreen®)
NIK/MAP3K14 auto-phosphorylation activity was measured using the AlphaScreen® (αscreen) format (Perkin Elmer). All compounds tested were dissolved in dimethyl sulfoxide (DMSO) and further dilutions were made in assay buffer. Final DMSO concentration was 1% (v/v) in assays. Assay buffer was 50 mM Tris pH 7.5 containing 1 mM EGTA (ethylene glycol tetraacetic acid), 1 mM DTT (dithiothreitol), 0.1 mM Na3VO4, 5 mM MgCl2, 0.01% Tween® 20. Assays were carried out in 384 well Alphaplates (Perkin Elmer). Incubations consisted of compound, 25 microM Adenosine-5′-triphosphate (ATP), and 0.2 nM NIK/MAP3K14. Incubations were initiated by addition of GST-tagged NIK/MAP3K14 enzyme, carried out for 1 h at 25° C. and terminated by addition of stop buffer containing anti-phospho-IKK Ser176/180 antibody. Protein A Acceptor and Glutathione-Donor beads were added before reading using an EnVision® Multilabel Plate Reader (Perkin Elmer). Signal obtained in the wells containing blank samples was subtracted from all other wells and IC50's were determined by fitting a sigmoidal curve to % inhibition of control versus Log10 compound concentration.

JJN-3 cells = assay: Antiproliferative activity on JJN-3 (NIK translocated) multiple myeloma cells (CellTiter-Glo); format: cell-based, human; conditions: JJN-3 (NIK translocated) cells, 96 hr, averaged values, read-out: JJN-3 Proliferation inhibition (IC50 (nM))
Description: (§1) Determination of antiproliferative activity on JJN-3 (NIK translocated) and KMS12-BM (NIK WT) multiple myeloma cells
(§2) All compounds tested were dissolved in DMSO and further dilutions were made in culture medium. Final DMSO concentration was 0.3% (v/v) in cell proliferation assays. Viability was assessed using CellTiter-Glo cell viability assay kit (Promega). The human JJN-3 and KMS12-BM cells (DSMZ) were cultured in RPMI 1640 medium supplemented with 2 mM L-glutamine, and 10% fetal calf serum (PAA). Cells were routinely kept as suspension cells at 37° C. in a humidified 5% CO2 atmosphere. Cells were passaged at a seeding density of 0.2×10^6/ml twice a week. Cells were seeded in black tissue culture treated 96-well plates (Perkin Elmer). Densities used for plating ranged from 15000 (JJN3) to 20000 (KMS12BM) cells per well in a total volume of 135 μl medium. Drugs and/or solvents were added (15 μl) to a final volume of 150 μl. Following 96 hr of treatment, plates were removed from the incubator and allowed to equilibrate to room temperature for approx 10 min. 75 μl CellTiter-Glo reagent was added to each well that was then covered (Perkin Elmer Topseal) and shaken on plate shaker for 10 min. Luminescence was measured on a HTS Topcount (Perkin Elmer). Within an experiment, the results for each treatment were the mean of 2 replicate wells. For initial screening purposes, compounds were tested using a 9 point dilution curve (serial 1:3 dilutions). For each experiment, controls (containing no drug) and a blank incubation (containing cells read at the time of compound addition) were run in parallel. The blank value was subtracted from all control and sample values. For each sample, the mean value for cell growth (in relative light units) was expressed as a percentage of the mean value for cell growth of the control.

KMS12-BM cells = assay: Antiproliferative activity on KMS12-BM (NIK WT) multiple myeloma cells (CellTiter-Glo); format: cell-based, human; conditions: KMS12-BM (NIK WT) cells, 96 hr, averaged values, read-out: KMS-12 Proliferation inhibition (IC50 (nM))
Description: as §1, §2

Row | Compound | IC50 [1] | IC50 (JJN-3 cells; Homo sapiens, JJN-3, 96 h) | IC50 (KMS12-BM cells; Homo sapiens, KMS-12-BM, 96 h) | IC50 (JJN-3 cells) | IC50 (KMS12-BM cells)
1 | CN(C)C(=O)c1cc(Nc2nccc(-c3cc(C#N)c4c(c3)[C@@](C)(CO)CN4)n2)nn1C [Compound 45] | 7.6 nM | 1320 nM | 4170 nM |  | 
2 | CC(C)n1ccc(Nc2nccc(-c3cc(C#N)c4c(c3)[C@@](C)(CO)CN4)n2)n1 [Compound 48] | 5.1 nM | 89 nM | 263 nM |  | 
3 | Cn1nc(Nc2nccc(-c3cc(C#N)c4c(c3)C(C)(CO)CN4)n2)cc1C(=O)NC1CCOCC1 (stereo not drawn) [Compound 50] | 3.8 nM | 316 nM | > 10000 nM |  | 
4 | CNC(=O)c1nn(C)cc1Nc1nccc(-c2cc(C#N)c3c(c2)[C@@](C)(CO)CN3)n1 [Compound 53] | 3.5 nM | 851 nM | ~5010 nM |  | 
5 | CNC(=O)c1cc(Nc2nccc(-c3cc(C#N)c4c(c3)[C@@](C)(CO)CN4)n2)n(C)n1 [Compound 56] | 3.1 nM | ~363 nM | ~1410 nM |  | 
6 | Cc1cc(Nc2nccc(-c3cc(C#N)c4c(c3)[C@@](C)(CO)CN4)n2)n(C2CCOCC2)n1 [Compound 63] | 9.8 nM | 692 nM | 6310 nM |  | 
7 | Cn1cc(Nc2nccc(-c3cc(C#N)c4c(c3)[C@@](C)(CO)CN4)n2)c(C(F)(F)F)n1 [Compound 64] | 1.9 nM | 240 nM | 3240 nM |  | 
8 | CC(C)(c1cc(Nc2nccc(-c3cc(C#N)c4c(c3)[C@@](C)(CO)CN4)n2)[nH]n1)S(C)(=O)=O [Compound 65] | 10 nM | ~1410 nM | > 10000 nM |  | 
9 | COCCn1nc(C2CCOCC2)cc1Nc1nccc(-c2cc(C#N)c3c(c2)[C@@](C)(CO)CN3)n1 [Compound 66] | 13 nM | 324 nM | > 10000 nM |  | 
10 | Cn1nc(C2CCOCC2)cc1Nc1nccc(-c2cc(C#N)c3c(c2)[C@@](C)(CO)CN3)n1 [Compound 67] | 1.6 nM | 141 nM | 912 nM |  | 
11 | Cc1nn(C2CCOCC2)cc1Nc1nccc(-c2cc(C#N)c3c(c2)[C@@](C)(CO)CN3)n1 [Compound 74] | 3 nM | 324 nM | ~3890 nM |  | 
12 | Cc1nn(CC2CCOCC2)cc1Nc1nccc(-c2cc(C#N)c3c(c2)[C@@](C)(CO)CN3)n1 [Compound 75] | 13 nM | 2090 nM | ~6030 nM |  | 
13 | Cc1cc(Nc2nccc(-c3cc(C#N)c4c(c3)[C@@](C)(CO)CN4)n2)n(CC(=O)N(C2CC2)C2CC2)n1 [Compound 80] | 3.9 nM | 1100 nM | 6170 nM |  | 
14 | Cn1cc(Nc2nccc(-c3cc(C#N)c4c(c3)[C@@](C)(CO)CN4)n2)c(CN2CCCC2=O)n1 [Compound 90] | 5.7 nM | 1550 nM | 5130 nM |  | 
15 | Cc1nnc(Nc2nccc(-c3cc(C#N)c4c(c3)C(C)(CO)CN4)n2)o1 (stereo not drawn) [Compound 142] | 42 nM | > 10000 nM | ~9770 nM |  | 
16 | Cn1ccc(Nc2ncc(F)c(-c3cc(C#N)c4c(c3)C(C)(CO)CN4)n2)n1 (stereo not drawn) [Compound 143] | 1.3 nM | ~81 nM | 204 nM |  | 
17 | Cn1ccc(Nc2ncc(F)c(-c3cc(C#N)c4c(c3)[C@@](C)(CO)CN4)n2)n1 [Compound 144] | 2 nM | 36 nM | 44 nM |  | 
18 | Cc1csc(Nc2nccc(-c3cc(C#N)c4c(c3)[C@@](C)(CO)CN4)n2)n1 [Compound 145] | 1.5 nM | 71 nM | ~3390 nM |  | 
19 | Cc1nscc1Nc1nccc(-c2cc(C#N)c3c(c2)[C@@](C)(CO)CN3)n1 [Compound 146] | 1.3 nM | 102 nM | 589 nM |  | 
20 | Cc1coc(Nc2nccc(-c3cc(C#N)c4c(c3)[C@@](C)(CO)CN4)n2)n1 [Compound 147] | 9.6 nM | ~436 nM | ~5010 nM |  | 
21 | Cc1nc(Nc2nccc(-c3cc(C#N)c4c(c3)[C@@](C)(CO)CN4)n2)sc1C [Compound 148] | 0.8 nM | 93 nM | 282 nM |  | 
22 | CN(CCO)C[C@]1(C)CNc2c(C#N)cc(-c3ccnc(Nc4ccn(C)n4)n3)cc21 [Compound 173] | 162 nM | 6030 nM | ~6310 nM |  | 
23 | CN(CCO)C[C@@]1(C)CNc2c(C#N)cc(-c3ccnc(Nc4ccn(C)n4)n3)cc21 [Compound 174] | 35 nM |  |  | 1550 nM | 3160 nM
24 | Cc1cc(Nc2nccc(-c3cc(C#N)c4c(c3)[C@@](C)(CO)CN4)n2)n(CC(=O)N2CCCCC2)n1 [Compound 179] | 6.2 nM | 832 nM | ~10000 nM |  | 
25 | Cn1ccc(Nc2ncnc(-c3cc(C#N)c4c(c3)C(C)(CO)CN4)n2)n1 (stereo not drawn) [Compound 216] | 7.8 nM | 537 nM | 2630 nM |  | 

Results, then the compound that gave them:

Row | IC50 [1] | IC50 (JJN-3 cells; Homo sapiens, JJN-3, 96 h) | IC50 (KMS12-BM cells; Homo sapiens, KMS-12-BM, 96 h) | IC50 (JJN-3 cells) | IC50 (KMS12-BM cells) | Compound
26 | 4.5 nM | 324 nM | 8710 nM |  |  | CCOCCn1nc(C)cc1Nc1nccc(-c2cc(C#N)c3c(c2)[C@@](C)(CO)CN3)n1 [Compound 44]
27 | 6.6 nM | 158 nM | 2400 nM |  |  | COCCCn1nccc1Nc1nccc(-c2cc(C#N)c3c(c2)[C@@](C)(CO)CN3)n1 [Compound 46]
28 | 44 nM | 1550 nM | > 10000 nM |  |  | COCCCn1nccc1Nc1nccc(-c2cc(C#N)c3c(c2)[C@](C)(CO)CN3)n1 [Compound 47]
29 | 11 nM | 525 nM | > 10000 nM |  |  | COCCCn1nc(C)cc1Nc1nccc(-c2cc(C#N)c3c(c2)[C@](C)(CO)CN3)n1 [Compound 54]
30 | 4.4 nM | 59 nM | ~2040 nM |  |  | Cc1cc(Nc2nccc(-c3cc(C#N)c4c(c3)[C@@](C)(CO)CN4)n2)n(CC(C)C)n1 [Compound 55]
31 | 28 nM | ~933 nM | > 10000 nM |  |  | COCCn1nc(C)cc1Nc1nccc(-c2cc(C#N)c3c(c2)[C@](C)(CO)CN3)n1 [Compound 57]
32 | 1.5 nM | 69 nM | 468 nM |  |  | COC(C)(C)CCn1nc(Nc2nccc(-c3cc(C#N)c4c(c3)[C@@](C)(CO)CN4)n2)cc1C [Compound 58]
33 | 5 nM | 68 nM | 1950 nM |  |  | COC(C)(C)CCn1nc(C)cc1Nc1nccc(-c2cc(C#N)c3c(c2)[C@@](C)(CO)CN3)n1 [Compound 59]
34 | 4.4 nM | 162 nM | 355 nM |  |  | Cc1cc(Nc2nccc(-c3cc(C#N)c4c(c3)[C@@](C)(CO)CN4)n2)n(CC2CCOCC2)n1 [Compound 61]
35 | 23 nM | 204 nM | 269 nM |  |  | Cc1cc(Nc2nccc(-c3cc(C#N)c4c(c3)[C@@](C)(CO)CN4)n2)n(C2CCN(C)CC2)n1 [Compound 62]
36 | 8.3 nM | 2240 nM | > 10000 nM |  |  | Cc1cc(Nc2nccc(-c3cc(C#N)c4c(c3)[C@@](C)(CO)CN4)n2)n(CC(=O)N(C)C(C)C)n1 [Compound 79]
